Measurements published in patent US12370255B2, “Peptide-based vaccines, methods of manufacturing, and uses thereof for inducing an immune response” (Barinthus Biotherapeutics North America, Inc., priority 2017, dated 2025).
“Also recorded” adds a separate entry of the source. *1 amine or outer side, *2 acyl side, *3 side chain or, on linkers, in order; H or OH if unused. Where a SMILES comes first, the peptide text is derived from it. Where no end group is shown, it is not given here. Side-chain parts run from the residue outwards. The star is where a group is joined. 2B = 1-(4-aminobutyl)-2-butyl-1H-imidazo[4,5-c]quinolin-4-amine, CCCCc1nc2c(N)nc3ccccc3c2n1CCCCN*; X2 = CCCCNc1nc(N)c2nc(O)n(Cc3ccc(C(=O)NCC(=O)NCCCn4nnc5c4-c4ccccc4N(*)Cc4ccccc4-5)cc3)c2n1; X1 = C1=C\c2ccccc2N(*)Cc2ccccc2/1; Suc = O=C(CCC(=O)[*:2])[*:1]

Experiments:
CD8 T cells = assay: antigen-specific CD8 T cell responses (% IFNg+ of total CD8 T cells) from whole blood of immunized mice; assay type: in vivo; conditions: native LP neoantigen admixed with pICLC; immunized days 0 and 14, day 28
Excerpt: Mice (N=5 per group) were immunized with different immunogenic compositions comprising peptide antigens (A) based on either the synthetic long peptide (LP, sometimes referred to as “SLP”) or the minimal CD8 T cell epitope (Min, sometimes referred to as ME) of the antigen Irgq derived from the MC38 tumor cell line either as the peptide antigen (A) alone admixed with the TLR-7/8a adjuvant; as the peptide antigen (A) linked to a hydrophobic molecule (H), W3, and admixed with the TLR-7/8a adjuvant; or as the peptide antigen (A) linked to a hydrophobic molecule (H) co-delivering a TLR-7/8a adjuvant, 2BXy3. Mice were immunized at days 0 and 14 and antigen-specific CD8 T cell responses (% IFNg+ of total CD8 T cells) were assessed from whole blood at days 0 and 25. Open circles indicate that the peptide antigen (A) was soluble (i.e. non-particulate), whereas closed circles indicate that the mice received a particulate immunogenic composition of the peptide antigen (A).
Mice (N=5 per group) were immunized with different immunogenic compositions comprising peptide antigens (A) based on either the synthetic long peptide (LP) or minimal CD8 T cell epitope (Min) of the antigen Cpne1 derived from the MC38 tumor cell line either as the peptide antigen (A) alone admixed with the TLR-7/8a adjuvant; as the peptide antigen (A) linked to a hydrophobic molecule (H), W3, and admixed with the TLR-7/8a adjuvant; or as the peptide antigen (A) linked to a hydrophobic molecule (H) co-delivering a TLR-7/8a adjuvant, 2BXy3. Mice were immunized at days 0 and 14 and antigen-specific CD8 T cell responses (% IFNg+ of total CD8 T cells) were assessed from whole blood at days 0 and 25. […]
Mice (N=5 per group) were immunized with immunogenic compositions comprising 4 unique peptide antigen conjugates delivering a distinct MC38 tumor derived minimal CD8 T cell epitopes (40 total epitopes) that were linked to either 2BXy5 or 2B5 hydrophobic molecules (H). Mice were immunized at days 0 and 14 and antigen-specific CD8 T cell responses (% IFNg+ of total CD8 T cells) were assessed from whole blood at day 24.

[1] = hydrodynamic behavior: water solubility, particle size by dynamic light scattering and turbidity in PBS pH 7.4; assay type: physicochemical; conditions: aqueous buffer at pH about 7.4
Excerpt: FIG. 4: Molecular weight and hydrodynamic behavior of peptide antigens (A) and peptide antigen conjugates delivering peptide antigens (A) comprised of either synthetic long peptides (SLP or “LP”) or minimal (“Min”) CD8 T cell epitopes derived from the MC38 tumor cell line. […] FIG. 4 discloses SEQ ID NOS 190-199, 623 and 200, respectively, in order of appearance. FIG. 18: Impact of peptide antigen conjugate net charge and hydrophobic molecule composition on hydrodynamic behavior. The hydrodynamic behavior of a range of different peptide antigen conjugates of Formula V at 0.1 mg/mL or 0.5 mg/mL in PBS at a pH of 7.4 was assessed by dynamic light scattering. […] Turbidity was determined by measuring the absorbance of the solution at 490 nm. […] (A) The impact of net charge on the hydrodynamic behavior of a range of different peptide antigen conjugates of Formula V suspended at 0.1 mg/mL or 0.5 mg/mL in PBS at a pH of 7.4 was assessed by dynamic light scattering. […] The hydrodynamic behavior of a range of different peptide antigen conjugates suspended at 0.1 mg/mL in PBS at a pH of 7.4 was assessed by dynamic light scattering. […] Particle size was assessed by dynamic light scattering with the peptide antigen conjugate suspended at 0.5 mg/mL in PBS at a pH of 7.4. […] Solubility can be determined by visual inspection, by turbidity measurements or by dynamic light scattering.

T cells = assay: T cell responses in vivo induced by peptide antigen conjugates; conditions: immunogenic compositions of peptide antigen conjugates
Excerpt: FIG. 37 discloses SEQ ID NOS 580-585, respectively, in order of appearance.
FIG. 38 discloses SEQ ID NOS 586-602, respectively, in order of appearance.
FIG. 39 discloses SEQ ID NOS 603-605 and 605, respectively, in order of appearance.
FIG. 40 discloses SEQ ID NOS 606-610, respectively, in order of appearance.
FIG. 41 discloses SEQ ID NOS 603-605, 103 and 611, respectively, in order of appearance.
FIG. 42 discloses SEQ ID NO: 104.
FIG. 45 discloses SEQ ID NOS 619, 620, 619, 621, 180 and 622, respectively, in order of appearance.

Molecule | CD8 T cell responses (in words) (CD8 T cells) | particle formation and stability (in words) [1] | T cell responses in vivo (in words) (T cells)
Adpgk: native LP neoantigen from MC38 that assembles into particles; minimal epitope Ala-Ser-Met-Thr-Asn-Met-Glu-Leu-Met (ASMTNMELM) | significant increase in CD8 T cell responses over background; also recorded: immunogenic | – | –
Compound 20 (KGWGWGKGWGWGKGWGWGKGWGWGKGWGWG; not fully specified (residues 1, 7, 13, 19, 25)) | – | formed stable nanoparticle micelles | high magnitude T cell responses
CCCCNc1nc(N)c2nc(O)n(Cc3ccc(C(=O)NCC(=O)NCCCn4nnc5c4-c4ccccc4N(C(=O)CCC(=O)NCCCCC(NC(=O)CNC(=O)CCC(=O)N4Cc6ccccc6/C=C\c6ccccc64)C(=O)NCC(=O)NC(Cc4c[nH]c6ccccc46)C(=O)NC(Cc4c[nH]c6ccccc46)C(=O)NC(Cc4c[nH]c6ccccc46)C(=O)NC(Cc4c[nH]c6ccccc46)C(=O)NC(Cc4c[nH]c6ccccc46)C(N)=O)Cc4ccccc4-5)cc3)c2n1 (centres unmarked) [Compound 30] ({X1-Suc}-GK([Suc-X2])GWWWWW-NH2; configuration not given here) | – | – | highest magnitude responses
Cpne1: native LP neoantigen derived from the MC38 tumor cell line, water soluble; minimal epitope Ser-Ser-Pro-Tyr-Ser-Leu-His-Tyr-Leu (SSPYSLHYL) | no CD8 T cell responses | – | –
CCCCc1nc2c(N)nc3ccccc3c2n1CCCCNC(=O)CCC(NC(=O)C(Cc1c[nH]c2ccccc12)NC(=O)C(CCC(=O)NCCCCn1c(CCCC)nc2c(N)nc3ccccc3c21)NC(=O)C(Cc1c[nH]c2ccccc12)NC(=O)C(CCC(=O)NCCCCn1c(CCCC)nc2c(N)nc3ccccc3c21)NC(=O)CCC(=O)N1Cc2ccccc2-c2c(nnn2CCCCC(=O)NC(CCCCN)C(=O)NC(CCCCN)C(=O)NC(CCCCN)C(=O)NC(CCCCN)C(=O)NC(CCCCN)C(=O)NC(CCCCN)C(=O)NC(CCCCN)C(=O)NC(CCCCN)C(=O)NC(CCCCN)C(=O)NC(CCCCN)C(N)=O)-c2ccccc21)C(N)=O (centres unmarked) [Compound 42] | – | – | high magnitude T cell immunity
Compound 16 (GGE(2B)GGE(2B)GGE(2B)GGE(2B)GGE(2B); also: DBCO) | – | formed stable nanoparticle micelles | high magnitude T cell responses
